Data taken from ChEMBL document CHEMBL3885881, “DrugMatrix”.

Species: Rattus norvegicus
Assay: DrugMatrix - Regimen: Daily Repeat
Format: toxicity, organism-based, Sprague-Dawley
Design: regimen Daily Repeat, gender Male, age 6-8 weeks
Details: in vivo, po, route oral GAVAGE, vehicle .5 % CMC; for ABSOLUTE BASOPHIL / ABSOLUTE EOSINOPHIL / ABSOLUTE LYMPHOCYTE / ABSOLUTE MONOCYTE / ABSOLUTE SEGMENTED NEUTROPHIL / BASOPHIL / EOSINOPHIL / ERYTHROCYTE COUNT / HEMATOCRIT / HEMOGLOBIN / LEUKOCYTE COUNT / LYMPHOCYTE / MEAN CORPUSCULAR HEMOGLOBIN / MEAN CORPUSCULAR HEMOGLOBIN CONCENTRATION / MEAN CORPUSCULAR VOLUME / MONOCYTE / NEUTROPHIL / NUCLEATED RED BLOOD CELLS / PLATELET COUNT: tissue Blood; for ALANINE AMINOTRANSFERASE / ALBUMIN / ALKALINE PHOSPHATASE / ASPARTATE AMINOTRANSFERASE / BLOOD UREA NITROGEN / CARBON DIOXIDE / CHLORIDE / CHOLESTEROL / CREATINE PHOSPHOKINASE / CREATININE / GLUCOSE / LACTATE DEHYDROGENASE / LIPASE / PHOSPHORUS / POTASSIUM / SODIUM / TOTAL BILIRUBIN / TOTAL PROTEIN / URIC ACID: tissue Plasma
[1] = 50 mg/kg, 120 h, dose level Low, time 5 day
[2] = 2500 mg/kg, 72 h, dose level High, time 3 day
[3] = 2500 mg/kg, 120 h, dose level High, time 5 day

CC(=O)O[C@]1(C(C)=O)CC[C@H]2[C@@H]3C=C(Cl)C4=CC(=O)[C@@H]5C[C@@H]5[C@]4(C)[C@H]3CC[C@@]21C [CYPROTERONE ACETATE]
ABSOLUTE BASOPHIL [1]: 0 CELLS/uL | ABSOLUTE EOSINOPHIL [1]: 24.33 CELLS/uL | ABSOLUTE LYMPHOCYTE [1]: 7928 CELLS/uL | ABSOLUTE MONOCYTE [1]: 144 CELLS/uL | ABSOLUTE SEGMENTED NEUTROPHIL [1]: 637 CELLS/uL | BASOPHIL [1]: 0% | EOSINOPHIL [1]: 0.33% | ERYTHROCYTE COUNT [1]: 5.93 x10E6/uL | HEMATOCRIT [1]: 37.07% | HEMOGLOBIN [1]: 14.9 G/DL | LEUKOCYTE COUNT [1]: 8.73 x10E3/uL | LYMPHOCYTE [1]: 90.33% | MEAN CORPUSCULAR HEMOGLOBIN [1]: 25.13 pg | MEAN CORPUSCULAR HEMOGLOBIN CONCENTRATION [1]: 40.23 G/DL | MEAN CORPUSCULAR VOLUME [1]: 62.47 fL | MONOCYTE [1]: 1.67% | NEUTROPHIL [1]: 7.67% | NUCLEATED RED BLOOD CELLS [1]: 0 /100WBC | PLATELET COUNT [1]: 1115.67 x10E3/uL | ALANINE AMINOTRANSFERASE [1]: 68.33 u/L | ALBUMIN [1]: 4.4 G/DL | ALKALINE PHOSPHATASE [1]: 339 u/L | ASPARTATE AMINOTRANSFERASE [1]: 88 u/L | BLOOD UREA NITROGEN [1]: 15.67 mg/dL | CARBON DIOXIDE [1]: 30.33 mmol/L | CHLORIDE [1]: 101 MEQ/L | CHOLESTEROL [1]: 79 mg/dL | CREATINE PHOSPHOKINASE [1]: 291 u/L | CREATININE [1]: 0.18 mg/dL | GLUCOSE [1]: 165 mg/dL | LACTATE DEHYDROGENASE [1]: 169 u/L | LIPASE [1]: 11 u/L | PHOSPHORUS [1]: 12.3 mg/dL | POTASSIUM [1]: 5.54 MEQ/L | SODIUM [1]: 144.17 MEQ/L | TOTAL BILIRUBIN [1]: 0.13 mg/dL | TOTAL PROTEIN [1]: 6.5 G/DL | URIC ACID [1]: 1.33 mg/dL | ABSOLUTE BASOPHIL [2]: 0 CELLS/uL | ABSOLUTE EOSINOPHIL [2]: 156.67 CELLS/uL | ABSOLUTE LYMPHOCYTE [2]: 10772 CELLS/uL | ABSOLUTE MONOCYTE [2]: 88.67 CELLS/uL | ABSOLUTE SEGMENTED NEUTROPHIL [2]: 1249.33 CELLS/uL | BASOPHIL [2]: 0% | EOSINOPHIL [2]: 1.33% | ERYTHROCYTE COUNT [2]: 5.59 x10E6/uL | HEMATOCRIT [2]: 36.7% | HEMOGLOBIN [2]: 14.03 G/DL | LEUKOCYTE COUNT [2]: 12.27 x10E3/uL | LYMPHOCYTE [2]: 88% | MEAN CORPUSCULAR HEMOGLOBIN [2]: 25.07 pg | MEAN CORPUSCULAR HEMOGLOBIN CONCENTRATION [2]: 38.23 G/DL | MEAN CORPUSCULAR VOLUME [2]: 65.63 fL | MONOCYTE [2]: 0.67% | NEUTROPHIL [2]: 10% | NUCLEATED RED BLOOD CELLS [2]: 0.33 /100WBC | PLATELET COUNT [2]: 1080.33 x10E3/uL | ALANINE AMINOTRANSFERASE [2]: 69.67 u/L | ALBUMIN [2]: 4.07 G/DL | ALKALINE PHOSPHATASE [2]: 424.67 u/L | ASPARTATE AMINOTRANSFERASE [2]: 99.67 u/L | BLOOD UREA NITROGEN [2]: 14.33 mg/dL | CARBON DIOXIDE [2]: 30 mmol/L | CHLORIDE [2]: 100.67 MEQ/L | CHOLESTEROL [2]: 113.33 mg/dL | CREATINE PHOSPHOKINASE [2]: 639.67 u/L | CREATININE [2]: 0.2 mg/dL | GLUCOSE [2]: 151.33 mg/dL | LACTATE DEHYDROGENASE [2]: 603.33 u/L | LIPASE [2]: 12.67 u/L | PHOSPHORUS [2]: 11.2 mg/dL | POTASSIUM [2]: 6.3 MEQ/L | SODIUM [2]: 141.73 MEQ/L | TOTAL BILIRUBIN [2]: 0.13 mg/dL | TOTAL PROTEIN [2]: 6 G/DL | URIC ACID [2]: 0.83 mg/dL | ABSOLUTE BASOPHIL [3]: 0 CELLS/uL | ABSOLUTE EOSINOPHIL [3]: 62.33 CELLS/uL | ABSOLUTE LYMPHOCYTE [3]: 8852.33 CELLS/uL | ABSOLUTE MONOCYTE [3]: 146.33 CELLS/uL | ABSOLUTE SEGMENTED NEUTROPHIL [3]: 2339 CELLS/uL | BASOPHIL [3]: 0% | EOSINOPHIL [3]: 0.67% | ERYTHROCYTE COUNT [3]: 5.55 x10E6/uL | HEMATOCRIT [3]: 34.3% | HEMOGLOBIN [3]: 13.77 G/DL | LEUKOCYTE COUNT [3]: 11.4 x10E3/uL | LYMPHOCYTE [3]: 80% | MEAN CORPUSCULAR HEMOGLOBIN [3]: 24.8 pg | MEAN CORPUSCULAR HEMOGLOBIN CONCENTRATION [3]: 40.13 G/DL | MEAN CORPUSCULAR VOLUME [3]: 61.87 fL | MONOCYTE [3]: 1.33% | NEUTROPHIL [3]: 18% | NUCLEATED RED BLOOD CELLS [3]: 0.33 /100WBC | PLATELET COUNT [3]: 1381.33 x10E3/uL | ALANINE AMINOTRANSFERASE [3]: 94 u/L | ALBUMIN [3]: 4.3 G/DL | ALKALINE PHOSPHATASE [3]: 317.67 u/L | ASPARTATE AMINOTRANSFERASE [3]: 101.67 u/L | BLOOD UREA NITROGEN [3]: 21.33 mg/dL | CARBON DIOXIDE [3]: 23.67 mmol/L | CHLORIDE [3]: 98.67 MEQ/L | CHOLESTEROL [3]: 98.67 mg/dL | CREATINE PHOSPHOKINASE [3]: 467 u/L | CREATININE [3]: 0.27 mg/dL | GLUCOSE [3]: 223 mg/dL | LACTATE DEHYDROGENASE [3]: 496 u/L | LIPASE [3]: 10.67 u/L | PHOSPHORUS [3]: 12.8 mg/dL | POTASSIUM [3]: 6.34 MEQ/L | SODIUM [3]: 142.07 MEQ/L | TOTAL BILIRUBIN [3]: 0.17 mg/dL | TOTAL PROTEIN [3]: 7 G/DL | URIC ACID [3]: 2.1 mg/dL
